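Step 1: Grow cells in 96-well plates. Step 2: Expose to compound for 48 hours at 5 concentrations. Step 3: Interpolate endpoints linearly; if unreached, use highest concentration. GI50 = concentration required for 50% inhibition of growth.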 Active and inactive are the calls of the source. No stated cut-off is given here; in the data, active = GI50 up to about 1.1 µM and inactive = higher.
Columns and labels:
Test in all cases: inhibition of tumour cell growth, NCI panel, 48 h
[1] = test system: MCF7
[2] = test system: HCT-15
[3] = test system: SF-295
[4] = test system: NCI-H226
[5] = test system: CCRF-CEM
[6] = test system: 786-0
[7] = test system: SK-MEL-28
[8] = test system: NCI-H522
[9] = test system: SNB-75
[10] = test system: U-251
[11] = test system: SW-620
[12] = test system: SK-MEL-2
[13] = test system: TK-10
[14] = test system: M14
[15] = test system: T47D
[16] = test system: SF-268
[17] = test system: OVCAR-3
[18] = test system: K562
[19] = test system: PC-3
[20] = test system: RPMI-8226

Row | SMILES | GI50 [1] | GI50 [2] | GI50 [3] | GI50 [4] | GI50 [5] | GI50 [6] | GI50 [7] | GI50 [8] | GI50 [9] | GI50 [10] | GI50 [11] | GI50 [12] | GI50 [13] | GI50 [14] | GI50 [15] | GI50 [16] | GI50 [17] | GI50 [18] | GI50 [19] | GI50 [20]
1 | CC(C)C(C/C=C1/CC(CO)(COC(=O)C(C)(C)C)OC1=O)C(C)C (centres undefined) | 18.4 µM (inactive) | 16.9 µM | 2.61 µM (inactive) | 7.57 µM (inactive) | 12.1 µM (inactive) | 3.23 µM (inactive) | 15.9 µM (inactive) | 12.6 µM (inactive) | 5.45 µM (inactive) | 12.6 µM (inactive) | 3.31 µM (inactive) | 15.1 µM (inactive) | 3.72 µM (inactive) | 11.7 µM (inactive) | 4.52 µM (inactive) | 10.8 µM (inactive) | 15.6 µM (inactive) | 0.171 µM (active) | 6.24 µM (inactive) | –
2 | COc1ccc(-c2nc(SCC(=O)N/N=C/c3ccc(O)c(OC)c3)[nH]c2-c2ccc(OC)cc2)cc1 | 17.9 µM (inactive) | 24.2 µM | 20.2 µM (inactive) | – | 3.44 µM (inactive) | 19.8 µM (inactive) | 28.4 µM (inactive) | 19.2 µM (inactive) | 47.5 µM (inactive) | 19.7 µM (inactive) | 30.8 µM (inactive) | 17.3 µM (inactive) | 41 µM (inactive) | 22.9 µM (inactive) | 22.7 µM (inactive) | 54.6 µM (inactive) | 18.8 µM (inactive) | 20 µM (inactive) | 27.1 µM (inactive) | –
3 | CCN1CCN(c2ccc(Nc3ccnc4ccc5c(nnn5C)c34)cc2)CC1 | 4.44 µM (inactive) | 3.95 µM | 8.2 µM (inactive) | – | 4.6 µM (inactive) | 3.86 µM (inactive) | 11.1 µM (inactive) | 1.1 µM (active) | 13.9 µM (inactive) | 5.69 µM (inactive) | 3.93 µM (inactive) | 12.2 µM (inactive) | 15.3 µM (inactive) | 10.7 µM (inactive) | 16 µM (inactive) | 6.46 µM (inactive) | 5.56 µM (inactive) | 3.61 µM (inactive) | 5.28 µM (inactive) | –
4 | O=C1CC(=O)NC(NN2C(=O)/C(=C/C(=O)c3ccco3)N=C2c2ccccc2)=N1 | 95.1 µM (inactive) | > 100 µM | 94.2 µM (inactive) | > 100 µM (inactive) | 20.6 µM (inactive) | > 100 µM (inactive) | > 100 µM (inactive) | 17.7 µM (inactive) | 22.2 µM (inactive) | 47.5 µM (inactive) | 73.6 µM (inactive) | 92.7 µM (inactive) | > 100 µM (inactive) | 92.3 µM (inactive) | 70.1 µM (inactive) | > 100 µM (inactive) | 42.4 µM (inactive) | – | 29.4 µM (inactive) | –
5 | Cc1cc2c(=O)[nH]nc(N)c2c(N)n1 | > 100 µM (inactive) | > 100 µM | > 100 µM (inactive) | > 100 µM (inactive) | > 100 µM (inactive) | > 100 µM (inactive) | > 100 µM (inactive) | > 100 µM (inactive) | – | > 100 µM (inactive) | > 100 µM (inactive) | > 100 µM (inactive) | > 100 µM (inactive) | > 100 µM (inactive) | > 100 µM (inactive) | > 100 µM (inactive) | – | > 100 µM (inactive) | > 100 µM (inactive) | > 100 µM (inactive)
6 | O=C1c2ccccc2C(=O)N1CCSCC(CO)SCCN1C(=O)c2ccccc2C1=O (centres undefined) | > 100 µM (inactive) | > 100 µM | > 100 µM (inactive) | > 100 µM (inactive) | 59.8 µM (inactive) | > 100 µM (inactive) | > 100 µM (inactive) | 62.5 µM (inactive) | – | > 100 µM (inactive) | > 100 µM (inactive) | > 100 µM (inactive) | > 100 µM (inactive) | 96.8 µM (inactive) | 86.9 µM (inactive) | > 100 µM (inactive) | – | 75.3 µM (inactive) | > 100 µM (inactive) | 80.2 µM (inactive)
7 | C=CCNC(=S)N/C=C(/C(C)=O)C(=O)Nc1ccccc1C | > 100 µM (inactive) | > 100 µM | > 100 µM (inactive) | > 100 µM (inactive) | – | > 100 µM (inactive) | – | > 100 µM (inactive) | – | > 100 µM (inactive) | > 100 µM (inactive) | > 100 µM (inactive) | > 100 µM (inactive) | > 100 µM (inactive) | > 100 µM (inactive) | > 100 µM (inactive) | > 100 µM (inactive) | > 100 µM (inactive) | > 100 µM (inactive) | 4.76 µM (inactive)
8 | CCCCOC(=O)Nc1ccc(S(=O)(=O)Nc2ccccc2Cl)cc1 | 19.2 µM (inactive) | 21.3 µM | 17.3 µM (inactive) | – | 19.2 µM (inactive) | 21.5 µM (inactive) | 19.6 µM (inactive) | 18.5 µM (inactive) | – | 17.5 µM (inactive) | 14.1 µM (inactive) | 18.1 µM (inactive) | 21.6 µM (inactive) | 19.8 µM (inactive) | 26.5 µM (inactive) | 16.9 µM (inactive) | 19.1 µM (inactive) | 17.5 µM (inactive) | 24.9 µM (inactive) | 16.3 µM (inactive)

From ChEMBL document CHEMBL1201862, “PubChem BioAssay data set” (2004)
